From PubChem BioAssay (NCI)
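Cultured in 96-well plates, cells were exposed to test compound for 48 hours across five concentrations. At the TGI there is no net growth.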

Tests used:
Assay in all cases: inhibition of tumour cell growth, NCI panel, 48 h
TK-10 renal = test system: TK-10 renal
T-47D breast = test system: T-47D breast
EKVX NSCLC = test system: EKVX NSCLC
HS 578T breast = test system: HS 578T breast
NCI-H23 lung = test system: NCI-H23 lung
MDA-MB-231 breast = test system: MDA-MB-231 breast
786-0 renal = test system: 786-0 renal
CAKI-1 renal = test system: CAKI-1 renal
SF-539 CNS = test system: SF-539 CNS
SK-MEL-5 melanoma = test system: SK-MEL-5 melanoma
U251 CNS = test system: U251 CNS
SK-MEL-2 melanoma = test system: SK-MEL-2 melanoma
SK-OV-3 ovarian = test system: SK-OV-3 ovarian
A498 renal = test system: A498 renal
COLO 205 colon = test system: COLO 205 colon
NCI-H226 lung = test system: NCI-H226 lung
ACHN renal = test system: ACHN renal
UO-31 renal = test system: UO-31 renal

| SMILES | TGI (TK-10 renal) [µM] | TGI (T-47D breast) [µM] | TGI (EKVX NSCLC) [µM] | TGI (HS 578T breast) [µM] | TGI (NCI-H23 lung) [µM] | TGI (MDA-MB-231 breast) [µM] | TGI (786-0 renal) [µM] | TGI (CAKI-1 renal) [µM] | TGI (SF-539 CNS) [µM] | TGI (SK-MEL-5 melanoma) [µM] | TGI (U251 CNS) [µM] | TGI (SK-MEL-2 melanoma) [µM] | TGI (SK-OV-3 ovarian) [µM] | TGI (A498 renal) [µM] | TGI (COLO 205 colon) [µM] | TGI (NCI-H226 lung) [µM] | TGI (ACHN renal) [µM] | TGI (UO-31 renal) [µM] |
| --- | --- | --- | --- | --- | --- | --- | --- | --- | --- | --- | --- | --- | --- | --- | --- | --- | --- | --- |
| CC1(C)Oc2ccc3c(=O)c(-c4ccccc4)c(-c4ccccc4)oc3c2C1C(=O)O (stereo not given) | > 100 | > 100 | > 100 | > 100 | > 100 | > 100 | > 100 | > 100 | > 100 | > 100 | > 100 | > 100 | > 100 | > 100 | > 100 | > 100 | – | – |
| O=c1c(-c2c(-c3ccccc3)oc3ccc(Cl)cc3c2=O)c(-c2ccccc2)oc2ccc(Cl)cc12 | > 100 | > 100 | > 100 | > 100 | > 100 | > 83.7 | > 100 | > 100 | > 100 | > 100 | > 100 | > 100 | > 89.4 | > 100 | > 100 | > 100 | > 100 | – |
| CC1(C)O[C@H]([C@H](O)c2nnc3ccc(Cl)nn23)[C@@H]([C@H]2COC(C)(C)O2)O1 | > 100 | > 100 | > 100 | > 100 | > 100 | > 100 | > 100 | > 100 | > 100 | > 100 | > 100 | > 100 | > 100 | > 100 | > 100 | – | > 100 | – |
| COc1ccc(C2=Nn3c(nc4sc(C)c(C)c4c3=O)SC2)cc1 | > 100 | > 100 | > 100 | > 100 | > 100 | > 100 | > 100 | > 100 | > 100 | > 100 | > 100 | – | > 100 | > 100 | > 100 | > 100 | > 100 | > 100 |
| CCOC(=O)/C(C=Nc1c(C)n(C)n(-c2ccccc2)c1=O)=C(/O)c1ccccc1 | > 100 | > 100 | > 100 | > 100 | > 100 | > 100 | > 100 | > 100 | > 100 | > 100 | > 100 | > 100 | > 100 | > 100 | > 100 | > 100 | > 100 | > 100 |
| CCC(=O)C1(N2CCOCC2)CCN(CCCC(=O)c2ccc(F)cc2)CC1 | > 100 | > 100 | > 100 | > 100 | > 100 | > 100 | > 100 | > 100 | > 100 | > 100 | > 100 | > 100 | > 100 | > 100 | > 100 | > 100 | > 100 | > 100 |
| Cc1[nH]n(C2=NCCN2)c(=O)c1C | > 100 | > 100 | > 100 | > 100 | > 100 | > 100 | > 100 | > 100 | > 100 | > 100 | > 100 | > 100 | > 100 | > 100 | > 100 | > 100 | > 100 | > 100 |
| O=C(Nc1ccc(Cl)cc1)NS(=O)(=O)c1coc2ccccc2c1=O | > 10 | > 10 | > 10 | > 10 | > 10 | > 10 | > 10 | > 10 | > 10 | > 10 | > 10 | > 10 | > 10 | > 10 | > 10 | > 10 | > 10 | – |
| CCc1n[nH]c(=O)n1N1C(=O)CCC1=O | > 100 | > 100 | > 100 | > 100 | – | > 100 | > 100 | > 100 | – | > 100 | > 100 | > 100 | > 100 | > 100 | > 100 | > 100 | > 100 | > 100 |
| O=Nc1c(-c2c(O)[nH]c3ccccc23)[nH]c2ccccc12 | 55.2 | > 48.7 | 9.12 | > 29.1 | > 44.6 | 21.2 | > 49.9 | 41 | > 100 | 26.4 | > 65.4 | 7.62 | 21.2 | 13.9 | 34.8 | – | > 32.1 | 13.4 |
| Cc1ccc(-c2cc(-c3ccc(Cl)cc3)nc(/N=C3\C(=O)N(CN4CCOCC4)c4ccccc43)n2)cc1 | 81.7 | > 100 | > 100 | 51.5 | 46 | > 100 | 74.3 | 80 | 36.5 | 36.1 | 77 | 37.2 | > 100 | 38.9 | 79.8 | 89.9 | 63.8 | – |
| Cc1c(C#N)c(N)[nH]c(=S)c1C#N | > 100 | > 100 | > 100 | > 100 | > 100 | > 100 | > 100 | > 100 | > 100 | > 100 | > 100 | > 100 | – | > 100 | – | > 100 | > 100 | > 100 |
| C=C[C@]1(O)CCC[C@]2(C)C(=O)CCC12C (stereo not given in full) | – | > 100 | > 100 | > 100 | > 100 | > 100 | > 100 | – | > 100 | > 100 | > 100 | > 100 | > 100 | > 100 | > 100 | > 100 | > 100 | > 100 |
| C=CCOc1ccc(/C(N=Nc2ccc(C)cc2)=N/NC(=O)c2ccccc2)cc1OC | > 100 | 45.3 | > 100 | 87.6 | 69.1 | > 100 | > 100 | > 100 | – | 31.9 | > 100 | 73.3 | – | 72 | 66.1 | 58.4 | > 100 | 73.4 |
